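Grown in 96-well plates, cells were treated for 48 hours with each compound at five concentrations. Insufficient inhibition: endpoint recorded as highest concentration tested. Here, GI50 denotes the concentration required for 50% inhibition of growth. TGI is the concentration that stops growth completely.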
Experiments:
Assay in all cases: growth of human tumour cells (NCI), 48 h
HCT-15 colon = tested on: HCT-15 colon
K-562 leukemia = tested on: K-562 leukemia
HL-60(TB) leukemia = tested on: HL-60(TB) leukemia
OVCAR-3 ovarian = tested on: OVCAR-3 ovarian
RPMI-8226 leukemia = tested on: RPMI-8226 leukemia
HT29 colon = tested on: HT29 colon
ACHN renal = tested on: ACHN renal
SK-MEL-28 melanoma = tested on: SK-MEL-28 melanoma
MDA-MB-435 = tested on: MDA-MB-435
MCF7 breast = tested on: MCF7 breast

Compound | TGI (HCT-15 colon) | TGI (K-562 leukemia) | TGI (HL-60(TB) leukemia) | TGI (OVCAR-3 ovarian) | TGI (RPMI-8226 leukemia) | TGI (HT29 colon) | TGI (ACHN renal) | TGI (SK-MEL-28 melanoma) | GI50 (HCT-15 colon) | GI50 (MDA-MB-435) | TGI (MDA-MB-435) | GI50 (K-562 leukemia) | GI50 (HL-60(TB) leukemia) | GI50 (HT29 colon) | GI50 (ACHN renal) | GI50 (SK-MEL-28 melanoma) | GI50 (OVCAR-3 ovarian) | GI50 (RPMI-8226 leukemia) | GI50 (MCF7 breast) | TGI (MCF7 breast)
COC(=O)C(C(=O)C(=O)Nc1ccc(N)cc1[N+](=O)[O-])c1nc2ccc(Cl)cc2[nH]c1=O (stereo not drawn) | > 100 µM | > 100 µM | > 100 µM | > 100 µM | > 100 µM | > 100 µM | > 100 µM | > 100 µM | – | – | – | – | – | – | – | – | – | – | – | –
O=C(OCc1ccccc1)c1ccccc1-c1c2ccc(=O)cc-2oc2cc(OCc3ccccc3)ccc12 | 63.3 µM | > 100 µM | 22.8 µM | 59.1 µM | 57.7 µM | 55.5 µM | > 100 µM | 61 µM | – | – | – | – | – | – | – | – | – | – | – | –
CC1=C(C(=O)NCc2ccccc2)C(c2ccccc2O)C(C(=O)NCc2ccccc2)=C(C)N1 | 30.2 µM | 88.9 µM | 62.2 µM | 31.9 µM | > 100 µM | 38.5 µM | 30.9 µM | 35.8 µM | – | – | – | – | – | – | – | – | – | – | – | –
CCCCCCC(=O)CC(=O)C(=O)Nc1ccccc1C | > 66.3 µM | > 100 µM | > 100 µM | > 100 µM | > 100 µM | > 100 µM | > 100 µM | > 100 µM | – | – | – | – | – | – | – | – | – | – | – | –
CC1CC2(C)CC(=O)C1C1C(=O)N(CCN3CCOCC3)C(=O)C12 (stereo not drawn) | > 100 µM | > 100 µM | > 100 µM | – | – | > 100 µM | > 100 µM | > 100 µM | > 100 µM | > 100 µM | > 100 µM | > 100 µM | > 100 µM | > 100 µM | > 100 µM | > 100 µM | – | – | – | –
C/C(=N\NS(=O)(=O)c1ccccc1)c1ccc[n+]([O-])n1 | > 100 µM | > 100 µM | 69.9 µM | > 100 µM | > 100 µM | > 100 µM | > 100 µM | > 100 µM | – | – | – | – | – | – | – | – | – | – | – | –
COc1ccc(CNC(=O)c2c(C)n([O-])c3cc(F)c(F)cc3[n+]2=O)cc1 | 3.43 µM | 4.05 µM | 12.2 µM | 21.6 µM | 30.9 µM | 16 µM | 30.6 µM | 23.6 µM | 1.77 µM | – | – | 1.93 µM | 2.64 µM | 3.91 µM | 16.9 µM | 11.5 µM | 10 µM | 6.4 µM | 5.72 µM | 19.3 µM
CCc1cccc(CC)c1NC(=O)C1=CNC(C)=C(C(=O)Nc2c(CC)cccc2CC)C1c1ccc(O)c(OC)c1 (stereo not drawn) | – | 99.5 µM | 57.4 µM | 53.9 µM | 45.3 µM | 80.2 µM | > 100 µM | > 100 µM | – | – | – | – | – | – | – | – | – | – | – | –
CCN(CC)c1ccc(N=C2C=CC(=C(C#N)C#N)c3ccccc32)c(C)c1 | 10.2 µM | 5.47 µM | 3.61 µM | 3.82 µM | 15.2 µM | 24.9 µM | 10.9 µM | 4.22 µM | – | – | – | – | – | – | – | – | – | – | – | –
O=S1Cc2ccccc2CSS1 (stereo not drawn) | 28.1 µM | 38.1 µM | 20 µM | 31.1 µM | 39.8 µM | 32.1 µM | 30.9 µM | 26.8 µM | – | – | – | – | – | – | – | – | – | – | – | –
CC(C)CC1NC(=O)C(C(C)C)NC(=O)CC(C)COC(=O)C(CC(C)C)N(C)C(=O)C(C(C)C)NC(=O)C(C(C)C)OC1=O (stereo not drawn) | > 50 µM | > 50 µM | – | > 50 µM | – | > 50 µM | > 50 µM | > 50 µM | – | – | > 50 µM | – | – | – | – | – | – | – | – | > 50 µM
CC(=O)CC(=O)ON(C)C(=O)Cc1ccccc1 | > 100 µM | > 100 µM | > 100 µM | > 100 µM | > 100 µM | > 100 µM | > 100 µM | > 100 µM | – | – | – | – | – | – | – | – | – | – | – | –
COc1c(OC2OC(CO)C(O)C(O)C2O)cc2c(c1OC)-c1ccc(OC)c(=O)cc1[C@@H](NC(C)=O)CC2 (stereo partly drawn) | > 100 µM | > 100 µM | > 100 µM | > 96.6 µM | > 100 µM | > 100 µM | > 100 µM | > 100 µM | – | – | – | – | – | – | – | – | – | – | – | –
NNC(=O)N/N=C1/C(=O)N(c2ccc(Cl)c(Cl)c2)C(=O)C(=O)C1c1nc2ccccc2o1 (stereo not drawn) | > 100 µM | > 100 µM | > 100 µM | > 100 µM | – | > 100 µM | > 100 µM | > 100 µM | – | – | – | – | – | – | – | – | – | – | – | –
Cc1c(C(=O)Nc2ccc(Cl)cc2)nc(N)nc1-c1cccc(Cl)c1 | – | > 100 µM | > 100 µM | > 100 µM | – | > 100 µM | > 100 µM | > 100 µM | – | – | – | – | – | – | – | – | – | – | – | –
COc1ccc([Se]c2ccc(OC)cc2)cc1 | > 100 µM | > 100 µM | > 100 µM | > 100 µM | > 100 µM | > 100 µM | > 100 µM | > 100 µM | – | – | – | – | – | – | – | – | – | – | – | –
C=C1CC(CC(=O)C(C)CC2CC(=C)C(=O)O2)OC1=O (stereo not drawn) | 36.7 µM | 89.6 µM | 33.6 µM | 37 µM | – | 63.2 µM | 35.1 µM | 30.4 µM | – | – | – | – | – | – | – | – | – | – | – | –
CC(=O)OC1(C#N)CC2OC1C1NC21 (stereo not drawn) | > 100 µM | > 100 µM | > 100 µM | – | > 100 µM | – | > 100 µM | > 100 µM | – | – | – | – | – | – | – | – | – | – | – | –
